The results in this text go back to patent US20100173835A1, “Peptides for Treatment of Obesity” (Novo Nordisk A/S, priority 2008, published 2010).

For data set [1], the target named is T1, MC1 receptor (Homo sapiens, UniProt Q01726).
T1 construct: expressed in transfected cells
The data set can be described thus: Assay (IV) Melanocortin Receptor 1 (MC1) binding assay. The protocol:
Assay (IV)—Melanocortin Receptor 1 (MC1) Binding Assay
The MC1 receptor binding assay is performed on BHK cell membranes stably expressing the MC1 receptor. The assay is performed in a total volume of 250 NI: 25 μl of ^125NDP-α-MSH (22 pM in final concentration), 25 μl of test compound/control and 200 μl of cell membrane (25 μg/ml). Test compounds are dissolved in DMSO. Radioactively labeled ligand, membranes and test compounds are diluted in buffer: 25 mM HEPES, pH 7.4, 0.1 mM CaCl2, 1 mM MgSO4, 1 mM EDTA, 0.1% HSA and 0.005% Tween™ 20. Alternatively, HSA may be substituted with ovalbumin. The samples are incubated at 30° C. for 90 min. in Costar round-bottom microtiter plates. Incubation is terminated by filtration on a Packard harvester filtermate. Rapid filtration through Packard Unifilter-96 GF/B filters pre-treated with polyethylenimine (PerkinElmer 6005277). The filters are washed with ice-cold 0.9% NaCl 8-10 times. The plates is air dried at app. 55° C. for 30 min, and 50 μl Microscint 0 (Packard, cat. No. 6013616) is added to each well. The plates are counted in a Topcounter (1 min/well).
(§1) The data are analysed by non-linear regression analysis of binding curves, using the Windows™ program GraphPad™ Prism (GraphPad Software, USA).

For data set [2], the target named is T2, human MC4 receptor (Homo sapiens, UniProt P32245).
T2 construct: expressed in transfected cells
The data set can be described thus: Assay (V) Melanocortin Receptor 4 (MC4) binding assay. The note with it: 125NDP-α-MSH binding, BHK cell membranes. The protocol: Assay (V)—Melanocortin Receptor 4 (MC4) Binding Assay
In vitro ^125NDP-α-MSH binding to recombinant BHK cells expressing human MC4 receptor (filtration assay).
The assay is performed in 5 ml minisorb vials (Sarstedt No. 55.526) or in 96-well filterplates (Millipore MADVN 6550), and using BHK cells expressing the human MC4 receptor using BHK cells stably expressing the human MC4 receptor. The membranes were prepared from frozen or fresh cells that were homogenized in 20 mM HEPES pH 7.1, 5 mM MgCl2 and 1 mg/ml bacitracin and centrifuged at 15000 rpm at 4° C., 10 min in a Sorvall RC 5B plus, SS-34 rotor. The supernatant was discarded, and the pellets were re-suspended in buffer, homogenized and centrifuged two more times. The final pellets were resuspended in the buffer mentioned above, and the protein concentration was measured and adjusted with buffer to 14 to 17 mg/ml and the membrane preparation were kept at −80° C. until assay. The assay was run directly on a dilution of this cell membrane suspension, without any further preparation. The BHK cell membranes are kept at −80° C. until assay, and the assay is run directly on a dilution of this cell membrane suspension, without further preparation. The suspension is diluted to give maximally 10% specific binding, i.e. to approx. 50-100 fold dilution. The assay is performed in a total volume of 200 μl: 50 μl of cell suspension, 50 μl of ^125NDP-α-MSH (≈79 pM in final concentration), 50 μl of test compound and 50 μl binding buffer (pH 7) mixed and incubated for 2 h at 25° C. [binding buffer: 25 mM HEPES, pH 7.0, 1 mM CaCl2, 1 mM MgSO4, 1 mM EGTA, 0.02% Bacitracin, 0.005% Tween™ 20 and 0.1% HSA or, alternatively, 0.1% ovalbumin (Sigma; catalogue No. A-5503)]. Test compounds are dissolved in DMSO and diluted in binding buffer. Radiolabelled ligand and membranes are diluted in binding buffer. The incubation is stopped by dilution with 2×100 μl ice-cold 0.9% NaCl. The radioactivity retained on the filters is counted using a Cobra II auto gamma counter.
as §1

Data set [3] is described as follows: Solubility data of compounds in water over the pH range. The data set is classed as physicochemical. The note with it: read-out: Conc (solubility in water).
Where [4] appears, read: 125NDP-α-MSH binding, BHK cell membranes, read-out: Assay (IV) MC1 Ki.

Converted amounts (≈) assume the structure as drawn. Read-outs that look alike come from different tables or passages of the source. *1 amine or outer side, *2 acyl side, *3 side chain or, on linkers, in order; H or OH if unused. Where a SMILES comes first, the peptide text is derived from it. Bridges are numbered along the chain shown (N, C = ends). [ ]: non-standard residue; d: D form. The star is where a group is joined. Palmitoyl(16-(5-tetrazolyl)) = O=C(CCCCCCCCCCCCCCCc1nnn[nH]1)*; X2 = O=C(CCCCCCCCCCCCCCCc1nnn[nH]1)NS(=O)(=O)CCCC(=O)*; Lys(CH2CO2H)2 = N[C@@H](CCCCN(CC(=O)O)CC(=O)O)C(=O)O; X1 = O=C(O)CN(CC(=O)O)C[C@H](N[*:1])C(=O)[*:2]; C16 diacid = O=C(O)CCCCCCCCCCCCCCC(=O)*; Hyp = O=C(O)[C@@H]1C[C@@H](O)CN1; NTA = O=C(O)CN(CC(=O)O)CC(=O)*; Nle = CCCC[C@H](N)C(=O)O; Dab = NCC[C@H](N)C(=O)O; Dap = NC[C@H](N)C(=O)O; AEEA = NCCOCCOCC(=O)O; βAla = NCCC(=O)O

T2 sequence (P32245 whole entry): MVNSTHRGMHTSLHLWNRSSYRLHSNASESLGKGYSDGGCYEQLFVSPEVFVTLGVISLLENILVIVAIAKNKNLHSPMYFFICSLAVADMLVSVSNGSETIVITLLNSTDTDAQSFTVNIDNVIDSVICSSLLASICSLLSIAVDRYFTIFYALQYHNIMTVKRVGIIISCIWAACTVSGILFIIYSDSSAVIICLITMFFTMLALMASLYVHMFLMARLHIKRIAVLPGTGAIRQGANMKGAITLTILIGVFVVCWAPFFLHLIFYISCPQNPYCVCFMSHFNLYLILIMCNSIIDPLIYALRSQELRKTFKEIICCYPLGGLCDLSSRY
T1 sequence (Q01726 whole entry): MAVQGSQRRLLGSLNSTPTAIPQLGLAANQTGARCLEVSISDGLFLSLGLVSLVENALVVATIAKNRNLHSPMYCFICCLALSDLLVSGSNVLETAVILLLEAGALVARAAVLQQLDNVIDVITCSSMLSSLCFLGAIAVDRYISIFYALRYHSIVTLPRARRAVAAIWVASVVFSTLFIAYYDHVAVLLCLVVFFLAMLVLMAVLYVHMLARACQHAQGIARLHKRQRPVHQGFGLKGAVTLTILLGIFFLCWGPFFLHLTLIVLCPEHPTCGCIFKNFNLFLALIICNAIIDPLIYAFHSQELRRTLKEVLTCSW

Regarding `CCCC[C@H](NC(=O)[C@H](CNC(=O)CN(CC(=O)O)CC(=O)O)NC(=O)[C@H](CO)NC(=O)[C@H](CCC(N)=O)NC(=O)[C@H](CO)NC(=O)CNC(=O)COCCOCCNC(=O)CCCCCCCCCCCCCCCc1nnn[nH]1)C(=O)N[C@H]1CCC(=O)NCCCC[C@@H](C(N)=O)NC(=O)[C@H](Cc2c[nH]c3ccccc23)NC(=O)[C@H](CCCNC(=N)N)NC(=O)[C@@H](Cc2ccccc2)NC(=O)[C@@H]2C[C@@H](O)CN2C1=O` [Example 4, (2-{2-[16-(Tetrazol-5-yl)hexadecanoylamino]ethoxy}ethoxy)acetyl-Gly-Ser-Gln-Ser-Dap(BCMA)-Nle-c[Glu-Hyp-D-Phe-Arg-Trp-Lys]-NH2] ({Palmitoyl(16-(5-tetrazolyl))-AEEA}-GSQS[Dap](NTA)[Nle]E[Hyp][dF]RWK-NH2; lactam 7-12), the results for the Ki in data set [1] and in data set [2] (Assay (V) MC4 [Ki] (nM)) were 4800 nM and 5.67 nM, respectively.
The like results for `CCCC[C@H](NC(=O)[C@H](CN(CC(=O)O)CC(=O)O)NC(=O)[C@H](Cc1c[nH]cn1)NC(=O)[C@H](CCC(N)=O)NC(=O)[C@H](CO)NC(=O)CNC(=O)COCCOCCNC(=O)CCCCCCCCCCCCCCCc1nnn[nH]1)C(=O)N[C@H]1CCC(=O)NCCCC[C@@H](C(N)=O)NC(=O)[C@H](Cc2c[nH]c3ccccc23)NC(=O)[C@H](CCCNC(=N)N)NC(=O)[C@@H](Cc2ccccc2)NC(=O)[C@@H]2C[C@@H](O)CN2C1=O` [Example 6, (2-{2-[16-(Tetrazol-5-yl)hexadecanoylamino]ethoxy}ethoxy)acetyl-Gly-Ser-Gln-His-Dap(biscarboxymethyl)-Nle-c[Glu-Hyp-D-Phe-Arg-Trp-Lys]-NH2] ({Palmitoyl(16-(5-tetrazolyl))-AEEA}-GSQH[X1][Nle]E[Hyp][dF]RWK-NH2; lactam 7-12) were, in that order, 5860 nM and 2.9 nM.
Turning to `CCCC[C@H](NC(=O)[C@H](CNC(=O)CN(CC(=O)O)CC(=O)O)NC(=O)[C@H](Cc1cnc[nH]1)NC(=O)[C@H](CCC(N)=O)NC(=O)[C@H](CO)NC(=O)CNC(=O)COCCOCCNC(=O)CCCCCCCCCCCCCCCc1nnn[nH]1)C(=O)N[C@H]1CCC(=O)NCCCC[C@@H](C(N)=O)NC(=O)[C@H](Cc2c[nH]c3ccccc23)NC(=O)[C@H](CCCN=C(N)N)NC(=O)[C@@H](Cc2ccccc2)NC(=O)[C@@H]2C[C@@H](O)CN2C1=O` [Example 9, (2-{2-[16-(Tetrazol-5-yl)hexadecanoylamino]ethoxy}ethoxy)acetyl-Gly-Ser-Gln-His-Dap(BCMA)-Nle-c[Glu-Hyp-D-Phe-Arg-Trp-Lys]-NH2] ({Palmitoyl(16-(5-tetrazolyl))-AEEA}-GSQH[Dap](NTA)[Nle]E[Hyp][dF]RWK-NH2; lactam 7-12), the values for the inhibition constant Ki in data set [1] and in data set [2] (Assay (V) MC4 [Ki] (nM)) were 2670 nM and 0.58 nM, respectively.
Consider `CCCC[C@H](NC(=O)[C@H](CCNC(=O)CN(CC(=O)O)CC(=O)O)NC(=O)[C@H](Cc1c[nH]cn1)NC(=O)[C@H](CCC(N)=O)NC(=O)[C@H](CO)NC(=O)CNC(=O)COCCOCCNC(=O)CCCCCCCCCCCCCCCc1nnn[nH]1)C(=O)N[C@H]1CCC(=O)NCCCC[C@@H](C(N)=O)NC(=O)[C@H](Cc2c[nH]c3ccccc23)NC(=O)[C@H](CCCNC(=N)N)NC(=O)[C@@H](Cc2ccccc2)NC(=O)[C@@H]2C[C@@H](O)CN2C1=O` [Example 10, (2-{2-[16-(Tetrazol-5-yl)hexadecanoylamino]ethoxy}ethoxy)acetyl-Gly-Ser-Gln-His-Dab(BCMA)-Nle-c[Glu-Hyp-D-Phe-Arg-Trp-Lys]-NH2] ({Palmitoyl(16-(5-tetrazolyl))-AEEA}-GSQH[Dab](NTA)[Nle]E[Hyp][dF]RWK-NH2; lactam 7-12), for which the inhibition constant Ki in data set [1] (setting [4]) is greater than 10000 nM; in data set [2] (read-out: Assay (V) MC4 [Ki]), 1.05 nM.
Consider `CCCC[C@H](NC(=O)[C@H](CNC(=O)CN(CC(=O)O)CC(=O)O)NC(=O)[C@H](Cc1c[nH]cn1)NC(=O)[C@H](CCC(N)=O)NC(=O)[C@H](CO)NC(=O)CNC(=O)COCCOCCNC(=O)CCCS(=O)(=O)NC(=O)CCCCCCCCCCCCCCCc1nnn[nH]1)C(=O)N[C@H]1CCC(=O)NCCCC[C@@H](C(N)=O)NC(=O)[C@H](Cc2c[nH]c3ccccc23)NC(=O)[C@H](CCCNC(=N)N)NC(=O)[C@@H](Cc2ccccc2)NC(=O)[C@@H]2C[C@@H](O)CN2C1=O` [Example 11, [2-(2-{4-[16-(Tetrazol-5-yl)hexadecanoylsulfamoyl]butanoylamino}ethoxy)ethoxy]acetyl-Gly-Ser-Gln-His-Dap(BCMA)-Nle-c[Glu-Hyp-D-Phe-Arg-Trp-Lys]-NH2] ({X2-AEEA}-GSQH[Dap](NTA)[Nle]E[Hyp][dF]RWK-NH2; lactam 7-12), for which the inhibition constant Ki was determined as 9700 nM in data set [1] and 3.25 nM in data set [2] (Assay (V) MC4 [Ki] (nM)).
On to `CCCC[C@H](NC(=O)[C@H](CCCCN(CC(=O)O)CC(=O)O)NC(=O)CCNC(=O)[C@H](Cc1c[nH]cn1)NC(=O)[C@H](CCC(N)=O)NC(=O)[C@H](CO)NC(=O)[C@H](CO)NC(=O)[C@H](CCC(N)=O)NC(=O)[C@@H](CO)NC(=O)CNC(=O)COCCOCCNC(=O)COCCOCCNC(=O)CCCCCCCCCCCCCCCc1nnn[nH]1)C(=O)N[C@H]1CCC(=O)NCCCC[C@@H](C(N)=O)NC(=O)[C@H](Cc2c[nH]c3ccccc23)NC(=O)[C@H](CCCNC(=N)N)NC(=O)[C@@H](Cc2ccccc2)NC(=O)[C@@H]2C[C@@H](O)CN2C1=O` [Example 12, (2-{2-[2-(2-{2-[16-(Tetrazol-5-yl)hexadecanoylamino]ethoxy}ethoxy)acetylamino]ethoxy}ethoxy)acetyl-Gly-D-Ser-Gln-Ser-Ser-Gln-His-β-Ala-Lys(biscarboxymethyl)-Nle-c[Glu-Hyp-D-Phe-Arg-Trp-Lys]-NH2] ({Palmitoyl(16-(5-tetrazolyl))-AEEA-AEEA}-G[dS]QSSQH[βAla][Lys(CH2CO2H)2][Nle]E[Hyp][dF]RWK-NH2; lactam 11-16), for which the solubility at 3 days is 409 µM (≈ 1060 µg/mL) in data set [3] (pH 3.1, pH 3.10); 374 µM (≈ 971 µg/mL) in data set [3] (pH 4.11, pH 4.11); 395 µM (≈ 1030 µg/mL) in data set [3] (pH 4.69, pH 4.69); 268 µM (≈ 696 µg/mL) in data set [3] (pH 4.82, pH 4.82); 136 µM (≈ 353 µg/mL) in data set [3] (pH 5.07, pH 5.07); 43 µM (≈ 112 µg/mL) in data set [3] (pH 5.56, pH 5.56). The solubility at 3 days in data set [3] (pH 6.71, pH 6.71) was determined as 58 µM (≈ 151 µg/mL); in data set [3] (pH 6.71) it was 87 µM (≈ 226 µg/mL); in data set [3] (pH 6.99), 119 µM (≈ 309 µg/mL); in data set [3] (pH 7.15, pH 7.15) it was 210 µM (≈ 545 µg/mL); in data set [3] (pH 7.72, pH 7.72) it was 256 µM (≈ 665 µg/mL). In data set [2] (Assay (V) MC4 [Ki] (nM)), this compound returned an inhibition constant Ki of 2.85 nM.
For `CCCC[C@H](NC(=O)[C@H](CNC(=O)CN(CC(=O)O)CC(=O)O)NC(=O)[C@H](Cc1c[nH]cn1)NC(=O)[C@H](CCC(N)=O)NC(=O)[C@H](CO)NC(=O)CNC(=O)COCCOCCNC(=O)CCCCCCCCCCCCCCC(=O)O)C(=O)N[C@H]1CCC(=O)NCCCC[C@@H](C(N)=O)NC(=O)[C@H](Cc2c[nH]c3ccccc23)NC(=O)[C@H](CCCNC(=N)N)NC(=O)[C@@H](Cc2ccccc2)NC(=O)[C@@H]2C[C@@H](O)CN2C1=O` [Example 13, {2-[2-(15-Carboxypentadecanoylamino)ethoxy]ethoxy}acetyl-Gly-Ser-Gln-His-Dap(BCMA)-Nle-c[Glu-Hyp-D-Phe-Arg-Trp-Lys]-NH2] ({C16 diacid-AEEA}-GSQH[Dap](NTA)[Nle]E[Hyp][dF]RWK-NH2; lactam 7-12), the values for the inhibitory constant (Ki) in data set [1] (setting [4]) and in data set [2] (read-out: Assay (V) MC4 [Ki]) were greater than 10000 nM and 3.6 nM, respectively.
